Like-named read-outs stand apart in the source and are kept apart here.
Assays:
Format in all cases: cell-based, Yersinia pseudotuberculosis
[1] = tested on: luciferase light signal from pIB102AL (luxAB downstream of the promoter for YerA)
[2] = tested on: luciferase light signal from pIB29EL (yopE-luxAB); experiment: microbe, parasite or virus in culture
[3] = tested on: Yop secretion from the wild-type strain pIB102EL; conditions: for Inhibition of Yop secretion into the surrounding medium (in words): supernatant after 3 h at 37° C., Western analysis
[4] = tested on: reporter gene signal from pIB102FL (lcrF-luxAB)
[5] = tested on: reporter gene signal from pIB102FΔhlhL (lcrFΔhlh-luxAB)
[6] = tested on: luciferase light signal from pIB102EL (yopE-luxAB, wild-type); experiment: microbe, parasite or virus in culture; conditions: for Inhibition (%) of the luciferase light signal: strain pIB102EL, Table 2C; for inhibition at 5 µM / inhibition at 10 µM / inhibition at 20 µM / inhibition at 50 µM / inhibition at 100 µM: Yersinia pseudotuberculosis, read-out: Inhibition (%) of the luciferase light signal
[7] = 10 μM, strain pIB29EL, Table 2C
[8] = 20 μM, strain pIB29EL, Table 2C
[9] = 50 μM, strain pIB29EL, Table 2C
[10] = 100 μM, strain pIB29EL, Table 2C

CC(=O)Oc1c(I)cc(I)cc1C(=O)Nc1ccc(Cl)cc1 [Compound 4, 2-acetoxy-4′-chloro-3,5-diiodobenzanilide]
Effect on reporter gene signal (in words) [1]: inhibits the reporter gene signal | Selectivity between pIB102EL (YopE promoter) and control strain pIB102AL (in words) [1]: no selectivity | inhibition at 5 µM ([2]; Yersinia pseudotuberculosis, read-out: Inhibition (%) of the luciferase light signal, 5 μM (first of two columns headed 5), pIB29EL, Table 2B): 15% | inhibition at 5 µM ([2]; Yersinia pseudotuberculosis, read-out: Inhibition (%) of the luciferase light signal, 5 μM (second of two columns headed 5), pIB29EL, Table 2B): 45% | inhibition at 10 µM ([2]; Yersinia pseudotuberculosis, read-out: Inhibition (%) of the luciferase light signal, 10 μM, pIB29EL, Table 2B): 81% | inhibition at 20 µM ([2]; Yersinia pseudotuberculosis, read-out: Inhibition (%) of the luciferase light signal, 20 μM, pIB29EL, Table 2B): 96% | Inhibition of Yop secretion into the surrounding medium (in words) [3]: dose dependent inhibition of secretion | Effect on reporter gene signal (in words) [4]: inhibits the reporter gene signal | Effect on reporter gene signal (in words) [5]: inhibits the reporter gene signal | Effect on reporter gene signal (in words) ([6]; pIB102EL, FIG. 5C): inhibits the reporter gene signal

CCOc1cccc(/C=N/NC(=O)c2ccc(Cl)cc2)c1O [Compound 43]
Inhibition (%) of the luciferase light signal ([6]; 5 μM): 0% | Inhibition (%) of the luciferase light signal ([6]; 10 μM): 6% | Inhibition (%) of the luciferase light signal ([6]; 20 μM): 12% | Inhibition (%) of the luciferase light signal ([6]; 50 μM): 22% | Inhibition (%) of the luciferase light signal ([6]; 100 μM): 34%

O=C(N/N=C/c1cc(Br)cc(Br)c1O)c1ccc([N+](=O)[O-])cc1 [Compound 3]
Selectivity between pIB102EL (YopE promoter) and control strain pIB102AL (in words) [1]: stronger inhibitory effect on the wild-type strain pIB102EL | Inhibition (%) of the luciferase light signal ([2]; 10 μM, pIB29EL, Table 2A): 12% | Inhibition (%) of the luciferase light signal ([2]; 20 μM, pIB29EL, Table 2A): 48% | Inhibition (%) of the luciferase light signal ([2]; 50 μM, pIB29EL, Table 2A): 85% | Inhibition (%) of the luciferase light signal ([2]; 100 μM, pIB29EL, Table 2A): 86% | Potency within the class of acylated hydrazones of salicylic aldehydes from primary screening (in words) ([2]; pIB29EL): most potent | Inhibition of Yop secretion into the surrounding medium (in words) [3]: efficiently inhibits Yop secretion in a dose dependent manner | Total Yop content, bacteria and surrounding media (in words) ([3]; various concentrations incl. 50 and 100 μM lanes, FIG. 6B): Yops can be observed at concentrations that completely inhibit secretion | Effect on reporter gene signal (in words) [4]: enhance the reporter gene signal | Effect on reporter gene signal (in words) [5]: more than doubled

Nc1ccc(C(=O)N/N=C/c2cc(I)cc(I)c2O)cc1 [Compound 40]
Inhibition (%) of the luciferase light signal ([6]; 5 μM): 3% | Inhibition (%) of the luciferase light signal ([6]; 10 μM): 11% | Inhibition (%) of the luciferase light signal ([6]; 20 μM): 18% | Inhibition (%) of the luciferase light signal ([6]; 50 μM): 41% | Inhibition (%) of the luciferase light signal ([6]; 100 μM): 50%

NC(=O)C(=O)N/N=C/c1cc(Br)ccc1O [Compound 22]
inhibition at 5 µM [6]: 0% | inhibition at 10 µM [6]: 4% | inhibition at 20 µM [6]: 24% | inhibition at 50 µM [6]: 66% | inhibition at 100 µM [6]: 82%

O=C(N/N=C/c1ccc(O)cc1O)c1ccc([N+](=O)[O-])cc1 [Compound 38]
Inhibition (%) of the luciferase light signal ([6]; 5 μM): 4% | Inhibition (%) of the luciferase light signal ([6]; 10 μM): 10% | Inhibition (%) of the luciferase light signal ([6]; 20 μM): 13% | Inhibition (%) of the luciferase light signal ([6]; 50 μM): 23% | Inhibition (%) of the luciferase light signal ([6]; 100 μM): 36%

O=C(N/N=C/c1cc(Br)ccc1O)c1cccnc1 [Compound 42]
Inhibition (%) of the luciferase light signal ([6]; 5 μM): 0% | Inhibition (%) of the luciferase light signal ([6]; 10 μM): 9% | Inhibition (%) of the luciferase light signal ([6]; 20 μM): 16% | Inhibition (%) of the luciferase light signal ([6]; 50 μM): 49% | Inhibition (%) of the luciferase light signal ([6]; 100 μM): 59%

O=C(Nc1ccc(Cl)c(Cl)c1)c1cc(Cl)ccc1NS(=O)(=O)c1cccc2nsnc12 [Compound 5]
Selectivity between pIB102EL (YopE promoter) and control strain pIB102AL (in words) [1]: stronger inhibitory effect on the wild-type strain pIB102EL | Inhibition (%) of the luciferase light signal ([2]; 10 μM, pIB29EL, Table 2A): 35% | Inhibition (%) of the luciferase light signal ([2]; 20 μM, pIB29EL, Table 2A): 60% | Inhibition (%) of the luciferase light signal ([2]; 50 μM, pIB29EL, Table 2A): 69% | Inhibition (%) of the luciferase light signal ([2]; 100 μM, pIB29EL, Table 2A): 66% | Inhibition of Yop secretion into the surrounding medium (in words) [3]: dose dependent inhibition of secretion | Effect on reporter gene signal (in words) [4]: minor inhibition | Effect on reporter gene signal (in words) [5]: modest enhancement

CCN(CC)c1ccc(/C=N/NC(=O)c2cccnc2)c(O)c1 [Compound 37]
inhibition at 5 µM [6]: 5% | inhibition at 10 µM [6]: 8% | inhibition at 20 µM [6]: 21% | inhibition at 50 µM [6]: 30% | inhibition at 100 µM [6]: 32%

O=C(N/N=C/c1ccc(O)c(O)c1O)c1ccccc1 [Compound 36]
Inhibition (%) of the luciferase light signal ([6]; 5 μM): 5% | Inhibition (%) of the luciferase light signal ([6]; 10 μM): 10% | Inhibition (%) of the luciferase light signal ([6]; 20 μM): 15% | Inhibition (%) of the luciferase light signal ([6]; 50 μM): 24% | Inhibition (%) of the luciferase light signal ([6]; 100 μM): 54%

CC(=NNC(=O)c1cccnc1)c1cc(Br)cc(Br)c1O [Compound 39]
Inhibition (%) of the luciferase light signal ([6]; 5 μM): 0% | Inhibition (%) of the luciferase light signal ([6]; 10 μM): 3% | Inhibition (%) of the luciferase light signal ([6]; 20 μM): 4% | Inhibition (%) of the luciferase light signal ([6]; 50 μM): 13% | Inhibition (%) of the luciferase light signal ([6]; 100 μM): 24%

Nc1ccc(C(=O)N/N=C/c2c(O)ccc3ccccc23)cc1 [Compound 44]
Inhibition (%) of the luciferase light signal ([6]; 5 μM): 3% | Inhibition (%) of the luciferase light signal ([6]; 10 μM): 10% | Inhibition (%) of the luciferase light signal ([6]; 20 μM): 15% | Inhibition (%) of the luciferase light signal ([6]; 50 μM): 23% | Inhibition (%) of the luciferase light signal ([6]; 100 μM): 30%

CC(=O)Oc1c(Cl)cc(Cl)c(Cl)c1C(=O)Nc1ccc(SC(F)(F)F)cc1 [Compound 47]
Inhibition (%) of the luciferase light signal ([2]; 5 μM, strain pIB29EL, Table 2C): 55% | Inhibition (%) of the luciferase light signal [2, 7]: 61% | Inhibition (%) of the luciferase light signal [2, 8]: 73% | Inhibition (%) of the luciferase light signal [2, 9]: 90% | Inhibition (%) of the luciferase light signal [2, 10]: 90%

O=C(Nc1cccc(Cl)c1)c1cc(Cl)ccc1NS(=O)(=O)c1cccc2nsnc12 [Compound 57]
Inhibition (%) of the luciferase light signal ([2]; 5 μM, strain pIB29EL, Table 2C): 0% | Inhibition (%) of the luciferase light signal [2, 7]: 7% | Inhibition (%) of the luciferase light signal [2, 8]: 26% | Inhibition (%) of the luciferase light signal [2, 9]: 49% | Inhibition (%) of the luciferase light signal [2, 10]: 55%

O=C(N/N=C/c1cc(Cl)cc(Cl)c1O)c1ccccc1 [Compound 35]
Inhibition (%) of the luciferase light signal ([6]; 5 μM): 0% | Inhibition (%) of the luciferase light signal ([6]; 10 μM): 0% | Inhibition (%) of the luciferase light signal ([6]; 20 μM): 5% | Inhibition (%) of the luciferase light signal ([6]; 50 μM): 21% | Inhibition (%) of the luciferase light signal ([6]; 100 μM): 43%

C=CCc1cccc(/C=N/NC(=O)c2ccc([N+](=O)[O-])cc2)c1O [Compound 10]
Inhibition (%) of the luciferase light signal ([2]; 10 μM, pIB29EL, Table 2A): 30% | Inhibition (%) of the luciferase light signal ([2]; 20 μM, pIB29EL, Table 2A): 49% | Inhibition (%) of the luciferase light signal ([2]; 50 μM, pIB29EL, Table 2A): 56% | Inhibition (%) of the luciferase light signal ([2]; 100 μM, pIB29EL, Table 2A): 57%

O=C(Nc1ccccc1)c1cc(I)cc(I)c1O [Compound 31]
Inhibition (%) of the luciferase light signal ([2]; 5 μM, strain pIB29EL, Table 2C): 10% | Inhibition (%) of the luciferase light signal [2, 7]: 30% | Inhibition (%) of the luciferase light signal [2, 8]: 60% | Inhibition (%) of the luciferase light signal [2, 9]: 77% | Inhibition (%) of the luciferase light signal [2, 10]: 98%

O=C(Nc1ccc(SC(F)(F)F)cc1)c1cccc(Cl)c1O [Compound 54]
Inhibition (%) of the luciferase light signal ([2]; 5 μM, strain pIB29EL, Table 2C): 41% | Inhibition (%) of the luciferase light signal [2, 7]: 63% | Inhibition (%) of the luciferase light signal [2, 8]: 86% | Inhibition (%) of the luciferase light signal [2, 9]: 89% | Inhibition (%) of the luciferase light signal [2, 10]: 87%

O=C(N/N=C/c1ccc(O)c(O)c1O)c1ccco1 [Compound 34]
inhibition at 5 µM [6]: 1% | inhibition at 10 µM [6]: 5% | inhibition at 20 µM [6]: 10% | inhibition at 50 µM [6]: 26% | inhibition at 100 µM [6]: 56%

CCCCCCc1cc(/C=N/NC(=O)c2ccc([N+](=O)[O-])cc2)c(O)cc1O [Compound 11]
Inhibition (%) of the luciferase light signal ([2]; 10 μM, pIB29EL, Table 2A): 30% | Inhibition (%) of the luciferase light signal ([2]; 20 μM, pIB29EL, Table 2A): 42% | Inhibition (%) of the luciferase light signal ([2]; 50 μM, pIB29EL, Table 2A): 69% | Inhibition (%) of the luciferase light signal ([2]; 100 μM, pIB29EL, Table 2A): 80%

O=C(N/N=C/c1c(O)ccc2ccccc12)c1ccccc1 [Compound 9]
Inhibition (%) of the luciferase light signal ([2]; 10 μM, pIB29EL, Table 2A): 9% | Inhibition (%) of the luciferase light signal ([2]; 20 μM, pIB29EL, Table 2A): 21% | Inhibition (%) of the luciferase light signal ([2]; 50 μM, pIB29EL, Table 2A): 41% | Inhibition (%) of the luciferase light signal ([2]; 100 μM, pIB29EL, Table 2A): 49%

O=C(N/N=C/c1cc(I)cc(I)c1O)c1ccc([N+](=O)[O-])cc1 [Compound 41]
Inhibition (%) of the luciferase light signal ([6]; 5 μM): 3% | Inhibition (%) of the luciferase light signal ([6]; 10 μM): 13% | Inhibition (%) of the luciferase light signal ([6]; 20 μM): 33% | Inhibition (%) of the luciferase light signal ([6]; 50 μM): 48% | Inhibition (%) of the luciferase light signal ([6]; 100 μM): 44%

— patent publication US7351861B2 (priority 2002, dated 2008)
